# Test results reported in patent US7199100B2, “Cyclic peptides, method for preparing and use as angiogenesis inhibitors or activator” (Commissariat a l'Energie Atomique, priority 2000, dated 2007).
# Read-outs that look alike come from different tables or passages of the source. Square brackets hold non-standard residues; d marks the D form. Peptide text beside a SMILES is read from it. * marks the point of attachment. OAll = C=CCO*
# Key:
# KDR receptor (VEGFR2) = molecular target: T1, KDR receptor (VEGFR2) (Homo sapiens, UniProt P35968); assay: Inhibition of 125I-VEGF binding to KDR receptor on CHOm VEGFR2 cells; conditions: for inhibiting binding of VEGF to the KDR receptor (in words): 125I-VEGF
# T1 construct: expressed in transfected cells; host or cells: heparan sulfate deficient Chinese hamster ovary cells (CHOm VEGFR2), VEGFR2 cDNA in psV-7d vector
# T1 sequence (P35968 20-1356, species assumed): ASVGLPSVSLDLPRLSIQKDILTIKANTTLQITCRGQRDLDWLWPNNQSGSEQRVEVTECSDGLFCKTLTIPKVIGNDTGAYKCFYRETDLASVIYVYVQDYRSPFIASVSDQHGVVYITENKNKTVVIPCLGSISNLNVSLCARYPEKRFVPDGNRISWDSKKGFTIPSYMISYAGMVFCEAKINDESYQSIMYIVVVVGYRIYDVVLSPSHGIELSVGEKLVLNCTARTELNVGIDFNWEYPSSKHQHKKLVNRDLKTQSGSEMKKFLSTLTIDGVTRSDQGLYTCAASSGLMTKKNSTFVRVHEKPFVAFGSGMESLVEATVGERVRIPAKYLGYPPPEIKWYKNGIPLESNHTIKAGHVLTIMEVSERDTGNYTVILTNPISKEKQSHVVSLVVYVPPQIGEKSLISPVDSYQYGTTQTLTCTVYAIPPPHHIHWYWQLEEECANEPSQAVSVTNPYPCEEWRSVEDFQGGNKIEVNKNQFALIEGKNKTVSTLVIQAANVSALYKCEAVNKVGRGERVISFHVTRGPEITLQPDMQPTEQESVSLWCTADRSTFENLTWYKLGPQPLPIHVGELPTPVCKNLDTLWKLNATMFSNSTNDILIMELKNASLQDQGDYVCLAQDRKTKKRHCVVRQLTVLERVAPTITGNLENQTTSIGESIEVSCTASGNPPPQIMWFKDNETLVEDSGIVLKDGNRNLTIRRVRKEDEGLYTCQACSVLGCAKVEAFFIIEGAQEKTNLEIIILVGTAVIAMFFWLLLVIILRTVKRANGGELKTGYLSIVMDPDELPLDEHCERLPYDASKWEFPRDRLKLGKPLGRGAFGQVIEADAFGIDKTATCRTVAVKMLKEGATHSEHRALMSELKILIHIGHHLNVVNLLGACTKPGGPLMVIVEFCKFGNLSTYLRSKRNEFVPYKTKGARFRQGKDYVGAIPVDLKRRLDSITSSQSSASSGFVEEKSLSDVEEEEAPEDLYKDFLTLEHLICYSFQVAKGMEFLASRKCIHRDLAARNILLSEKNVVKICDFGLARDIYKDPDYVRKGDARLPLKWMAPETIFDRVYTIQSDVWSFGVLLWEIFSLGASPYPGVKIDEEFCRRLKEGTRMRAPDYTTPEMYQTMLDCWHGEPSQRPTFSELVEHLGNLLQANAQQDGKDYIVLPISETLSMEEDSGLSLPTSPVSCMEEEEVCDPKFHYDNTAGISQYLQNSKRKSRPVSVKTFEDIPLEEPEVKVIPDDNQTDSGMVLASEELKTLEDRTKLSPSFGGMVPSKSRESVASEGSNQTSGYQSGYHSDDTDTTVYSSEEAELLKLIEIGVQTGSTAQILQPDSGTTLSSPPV
# Description: The P1 to P24 peptides are tested as concerns their property of inhibition of the binding of VEGF to its KDR receptor.
# For these tests, heparin sulfate deficient Chinese hamster ovarian cells that are transfected with an expression vector containing VEGFR2cDnA (CHOm VEGFR2 cells) are used.
# The CHOm VEGFR2 cells are routinely cultured in Dulbecco modified Eagle medium and supplemented with 10% (v/v) fetal calf serum (FCS), 50 U/ml penicillin, 50 μg/ml streptomycin, 1 mg/ml glucose and 2 mM L-glutamine at 37° C. in a 5% CO2 atmosphere.
# The subconfluent flasks are transferred at 4° C. […] At the end of the incubation period, the cells are washed 3 times using iced PBS and solubized in 1 mL of buffer with 2% Triton X 100, 10% glycol, 1 mg/mL bovine serum albumin BSA. The radioactivity rate bound to the cells is counted in an MR-250 Kontron gamma counter. […] Specific binding is calculated by subtracting non-specific binding from total binding.
# These assays are continued using the cyclopeptides of interest and two linear peptides as controls for an inhibition analysis as a function of dose.
# endothelial cells [1] = assay: VEGF-stimulated endothelial cell proliferation (cell count); format: cell-based; conditions: 10 ng/mL of VEGF
# Description: Cellular proliferation is measured by cell count. 7,000 endothelial cells are placed in the wells of 24-well plates (Costar) in DMEM medium containing newborn bovine serum. […] Two days later, the cells area once again stimulated by VEGF in the presence or absence of different concentrations of peptide. At the fifth day, the cells are trypsinized and counted using a Coulter counter.
# endothelial cells [2] = assay: VEGF-stimulated endothelial cell migration (monolayer denudation); format: cell-based; conditions: 10 ng/mL VEGF
# Description: Cellular migration is measured according to the method described by Sato and Rifkin (J. Cell Biol., September, 1988, (107 (3): 1199–205) [17] with modifications. 100,000 endothelial cells are placed in 35 mm culture flasks in DMEM medium containing 10% fetal calf serum. On confluence, the medium is replaced by DMEM medium without serum and the cells are incubated overnight. On the next day, denudation is done artificially in the monolayer using a sterile pipette tip. A series of digital photographs is taken and the border of denudation is marked by a line using the BiocomVisionLab2000 program. The flasks are then rinsed and incubated with 10 ng/mL VEGF in the presence or absence of peptide. After 18 hours of incubation a new series of photographs is taken and the before and after stimulation images are superimposed. The cells situated beyond the border of denudation are counted.
# ERK2 (p42) = assay: VEGF-induced phosphorylation of ERK2 (p42), Western blot, capillary endothelial cells; format: cell-based; conditions: p42 and p44 together, 10 ng/mL of VEGF
# Description: Phosphorylation of ERK1 (p44) and ERK2 (p42) is measured by Western blot using anti p42/p44 antibodies (New England Biolabs). The capillary endothelial cells are cultivated in DMEM containing 10% newborn bovine serum. Subconfluent cultures are then deprived of serum over a period of 24 hours. The peptides are then added at specific concentrations over 5 minutes to the cells in the presence or absence of 10 ng/mL of VEGF. The cells are then removed from the culture flasks and lysed for 20 minutes over ice in lysis buffer containing […], pH 7.4, 75 mM NaCl, 1 mM EDTA, 1% Nonidet P-40 and 0.01% of SDS. The insoluble material is removed by centrifugation and 50 μg/mL of protein extract are separated by polyacrylamide gel electrophoresis containing sodium dodecyl sulfate (SDS) under denaturing conditions. The proteins are then transferred from the gel onto a nitrocellulose membrane (Amersham Pharmacia Biotech, Orsay) using a transfer apparatus (semi-dry transfer, Bio-Rad, Irvy-sur-Seine, France). […] The results are quantified using the Image Quant program (Molecular Dynamics).
# The assays were done as indicated. […] The degree of phosphorylation is estimated after quantification of the signals obtained using autoradiographic films and the results are expressed in percent inhibition relative to the signal obtained using 10 ng/mL of VEGF alone.
# [3] = CHOm VEGFR2 cells, 5 ng/mL 125I-VEGF, 2 hours at 4° C.
Compound,IC50 (KDR receptor (VEGFR2)) [µM],inhibiting binding of VEGF to the KDR receptor (in words) (KDR receptor (VEGFR2); CHOm VEGFR2 cells),other results
H-QIMRIKPH-OH [Peptide P2],> 300,–,–
CC[C@H](C)[C@@H]1NC(=O)[C@H](Cc2c[nH]cn2)NC(=O)[C@H](CCC(N)=O)NC(=O)CNC(=O)[C@H](CCC(N)=O)NC(=O)[C@H](Cc2c[nH]cn2)NC(=O)[C@@H]2CCCN2C(=O)[C@H](CCCCN)NC(=O)[C@H]([C@@H](C)CC)NC(=O)[C@H](CCCNC(=N)N)NC(=O)[C@H](CCSC)NC(=O)[C@H]([C@@H](C)CC)NC(=O)[C@H](CCC(N)=O)NC(=O)[C@@H]2CCCN2C(=O)[C@@H](Cc2ccccc2)NC(=O)CNC1=O [Peptide P20] (cyclo([dF]PQIMRIKPHQGQHIG)),10,very effective,–
CC[C@H](C)[C@@H]1NC(=O)[C@H](Cc2c[nH]cn2)NC(=O)[C@H](CCC(N)=O)NC(=O)CNC(=O)[C@H](CCC(N)=O)NC(=O)[C@H](Cc2c[nH]cn2)NC(=O)[C@@H]2CCCN2C(=O)[C@H](CCCCN)NC(=O)[C@H]([C@@H](C)CC)NC(=O)[C@H](CCCNC(=N)N)NC(=O)[C@H](CCSC)NC(=O)[C@H]([C@@H](C)CC)NC(=O)[C@H](CCC(N)=O)NC(=O)CNC(=O)[C@H](CCC(=O)O)NC(=O)CNC1=O [Peptide P12] (cyclo(EGQIMRIKPHQGQHIG)),300,–,–
"CC[C@H](C)[C@@H]1NC(=O)[C@H](CCC(N)=O)NC(=O)[C@H](CCC(=O)O)NC(=O)[C@H](CCC(N)=O)NC(=O)[C@H](Cc2c[nH]cn2)NC(=O)[C@@H]2CCCN2C(=O)[C@H](CCCCN)NC(=O)[C@H]([C@@H](C)CC)NC(=O)[C@H](CCCNC(=N)N)NC(=O)[C@H](CCSC)NC1=O [Peptide P22, reference compound] (cyclo(EQIMRIKPHQ))",> 300,–,–
C=CCOC(=O)[C@H](CCC(=O)O)NC(=O)CNC(=O)[C@@H](NC(=O)[C@H](Cc1c[nH]cn1)NC(=O)[C@H](CCC(N)=O)NC(=O)CNC(=O)[C@H](CCC(N)=O)NC(=O)[C@H](Cc1c[nH]cn1)NC(=O)[C@@H]1CCCN1C(=O)[C@H](CCCCN)NC(=O)[C@@H](NC(=O)[C@H](CCCNC(=N)N)NC(=O)[C@H](CCSC)NC(=O)[C@@H](NC(=O)[C@@H](N)CCC(N)=O)[C@@H](C)CC)[C@@H](C)CC)[C@@H](C)CC [Peptide P10] (H-QIMRIKPHQGQHIGE-OAll),> 300,–,–
CC[C@H](C)[C@@H]1NC(=O)[C@H](CCCNC(=N)N)NC(=O)[C@@H]2CCCN2C(=O)[C@@H](Cc2ccc(O)cc2)NC(=O)[C@H](CCC(N)=O)NC(=O)[C@H](Cc2c[nH]cn2)NC(=O)[C@@H]2CCCN2C(=O)[C@H](CCCCN)NC1=O [Peptide P23] (cyclo([dY]PRIKPHQ)),–,very effective,–
H-PQIMRIKPHQGQHIGE-OH [Peptide P14],> 300,–,–
"CC[C@H](C)[C@@H]1NC(=O)[C@H](CCCNC(=N)N)NC(=O)CNC(=O)[C@H](Cc2c[nH]cn2)NC(=O)[C@@H]2CCCN2C(=O)[C@H](CCCCN)NC1=O [Peptide P24, cyclo(Gly-Arg-Ile-Lys-Pro-His)] (cyclo(GRIKPH))",–,very effective,IC50 (KDR receptor (VEGFR2); [3]): 8 µM
CC[C@H](C)[C@@H]1NC(=O)[C@H](CCCNC(=N)N)NC(=O)[C@@H]2CCCN2C(=O)CNC(=O)[C@H](CCC(N)=O)NC(=O)[C@H](Cc2c[nH]cn2)NC(=O)[C@@H]2CCCN2C(=O)[C@H](CCCCN)NC1=O [Peptide P17] (cyclo(PRIKPHQG)),10,very effective,–
CC[C@H](C)[C@@H]1NC(=O)[C@H](Cc2c[nH]cn2)NC(=O)[C@H](CCC(N)=O)NC(=O)CNC(=O)[C@H](CCC(N)=O)NC(=O)[C@H](Cc2c[nH]cn2)NC(=O)[C@@H]2CCCN2C(=O)[C@H](CCCCN)NC(=O)[C@H]([C@@H](C)CC)NC(=O)[C@H](CCCNC(=N)N)NC(=O)[C@H](CCSC)NC(=O)[C@H]([C@@H](C)CC)NC(=O)[C@H](CCC(N)=O)NC(=O)[C@@H]2CCCN2C(=O)[C@@H](Cc2ccccc2)NC(=O)[C@H](CCC(=O)O)NC(=O)CNC1=O [Peptide P11] (cyclo([dF]PQIMRIKPHQGQHIGE)),–,very effective,inhibition of cellular proliferation (in words) (endothelial cells [1]): strong inhibition; inhibition of cellular migration (in words) (endothelial cells [2]): strongly inhibits; inhibition of phosphorylation of p42/p44 (in words) (ERK2 (p42)): strongly inhibits
"CC[C@H](C)[C@@H]1NC(=O)[C@H](CCCNC(=N)N)NC(=O)CNC(=O)[C@H](Cc2c[nH]cn2)NC(=O)[C@H](CCC(N)=O)NC(=O)CNC(=O)[C@H](CCC(N)=O)NC(=O)[C@H](Cc2c[nH]cn2)NC(=O)[C@H]2CCCN2C(=O)[C@H](CCCCN)NC1=O [Peptide P7, cyclo(Gly-Arg-Ile-Lys-DPro-His-Gln-Gly-Gln-His)] (cyclo(GQHGRIK[dP]HQ))",> 300,–,–
"H-RIKPHQG-OH [Peptide P3, H-Arg-Ile-Lys-Pro-His-Gln-Gly-OH]",> 300,–,–
CC[C@H](C)[C@@H]1NC(=O)[C@H](CCCNC(=N)N)NC(=O)CNC(=O)[C@H](Cc2c[nH]cn2)NC(=O)CNC(=O)[C@H](CCC(N)=O)NC(=O)[C@H](Cc2c[nH]cn2)NC(=O)[C@@H]2CCCN2C(=O)[C@H](CCCCN)NC1=O [Peptide P8] (cyclo(GRIKPHQGH)),–,–,IC50 (KDR receptor (VEGFR2); [3]): 200 µM
"CC[C@H](C)[C@H](NC(=O)[C@H](CCCNC(=N)N)NC(=O)CN)C(=O)N[C@@H](CCCCN)C(=O)N1CCC[C@@H]1C(=O)N[C@@H](Cc1c[nH]cn1)C(=O)N[C@@H](CCC(N)=O)C(=O)NCC(=O)N[C@@H](CCC(N)=O)C(=O)N[C@@H](Cc1c[nH]cn1)C(=O)O [Peptide P6, H-Gly-Arg-Ile-Lys-DPro-His-Gln-Gly-Gln-His-OH] (H-GRIK[dP]HQGQH-OH)",> 300,–,–
CC[C@H](C)[C@@H]1NC(=O)[C@H](CCCNC(=N)N)NC(=O)[C@@H]2CCCN2C(=O)[C@H](Cc2c[nH]cn2)NC(=O)[C@H](CCC(N)=O)NC(=O)CNC(=O)[C@H](CCC(N)=O)NC(=O)[C@H](Cc2c[nH]cn2)NC(=O)[C@@H]2CCCN2C(=O)[C@H](CCCCN)NC1=O [Peptide P9] (cyclo(GQHPRIKPHQ)),300,–,–
CC[C@H](C)[C@@H]1NC(=O)[C@H](Cc2c[nH]cn2)NC(=O)[C@H](CCC(N)=O)NC(=O)CNC(=O)[C@H](CCC(N)=O)NC(=O)[C@H](Cc2c[nH]cn2)NC(=O)[C@@H]2CCCN2C(=O)[C@H](CCCCN)NC(=O)[C@H]([C@@H](C)CC)NC(=O)[C@H](CCCNC(=N)N)NC(=O)[C@H](CCSC)NC(=O)[C@H]([C@@H](C)CC)NC(=O)[C@H](CCC(N)=O)NC(=O)[C@@H]2CCCN2C(=O)[C@H](CCC(=O)O)NC(=O)CNC1=O [Peptide P13] (cyclo(EPQIMRIKPHQGQHIG)),> 300,–,–
"H-RIKPH-OH [Peptide P1, H-Arg-Ile-Lys-Pro-His-OH]",–,–,IC50 (KDR receptor (VEGFR2); [3]): > 300 µM
CC[C@H](C)[C@@H]1NC(=O)[C@H](CCCNC(=N)N)NC(=O)[C@H](CCSC)NC(=O)[C@H]([C@@H](C)CC)NC(=O)[C@@H]2CCCN2C(=O)[C@@H](Cc2ccccc2)NC(=O)[C@H]([C@@H](C)CC)NC(=O)[C@H](Cc2c[nH]cn2)NC(=O)[C@H](CCC(N)=O)NC(=O)CNC(=O)[C@H](CCC(N)=O)NC(=O)[C@H](Cc2c[nH]cn2)NC(=O)[C@@H]2CCCN2C(=O)[C@H](CCCCN)NC1=O [Peptide P21] (cyclo(GQHI[dF]PIMRIKPHQ)),200,–,–
"CC[C@H](C)[C@@H]1NC(=O)[C@H](CCCNC(=N)N)NC(=O)CNC(=O)[C@H](CCC(N)=O)NC(=O)[C@H](Cc2c[nH]cn2)NC(=O)[C@@H]2CCCN2C(=O)[C@H](CCCCN)NC1=O [Peptide P16, cyclo(Arg-Ile-Lys-Pro-His-Gln-Gly)] (cyclo(RIKPHQG))",–,very effective,–
H-QIMRIKPHQGQHIG-OH [Peptide P5],> 300,–,–
CC[C@H](C)[C@@H]1NC(=O)[C@H](Cc2c[nH]cn2)NC(=O)[C@H](CCC(N)=O)NC(=O)CNC(=O)[C@H](CCC(N)=O)NC(=O)[C@H](Cc2c[nH]cn2)NC(=O)[C@@H]2CCCN2C(=O)[C@H](CCCCN)NC(=O)[C@H]([C@@H](C)CC)NC(=O)[C@H](CCCNC(=N)N)NC(=O)[C@H](CCSC)NC(=O)[C@H]([C@@H](C)CC)NC(=O)[C@H](CCC(N)=O)NC(=O)[C@H](CCC(=O)O)NC(=O)CNC1=O [Peptide P19] (cyclo(QIMRIKPHQGQHIGE)),–,very effective,–
H-GQIMRIKPHQGQHIGE-OH [Peptide P15],> 300,–,–
H-QIMRIKPHQGQHIGE-OH [Peptide P4],> 300,–,–
